Series [1] deals with HeLa cells. Particulars: for 50% cell mortality concentration: culture for 1 day, determined from the slope, Cell Counting Kit-8. The procedure: (§1) The cells were cultured at 37° C. under 5% CO2. The culture medium used was D-MEM (Invitrogen-Gibco) to which 10% fetal bovine serum was added.
(§2) After culture for 1 day, the range in which autophagy occurred was measured by fluorescence microscopic observation using a Cyto-ID (registered trademark) autophagy detection kit (Cosmo Bio Co., Ltd.). […] Similarly, the 50% cell mortality concentration was also determined from the slope using a Cell Counting Kit-8 (Dojindo Laboratories Co., Ltd.), which is kit for measuring cell counts.

Series [2] has as its system HeLa cells. Description: Evaluation of autophagy by fluorescence microscopy with Cyto-ID autophagy detection kit. It counts as cell-based. Particulars: culture for 1 day, fluorescence intensity same as rapamycin of the kit as reference. As to the method: as §1, §2

As to `O=C(O)c1cc(C(=O)O)c2c(n1)C(=O)C(=O)c1cc(C(=O)O)[nH]c1-2` [Example 1, Disodium 4,5-Dioxo-4,5-dihydro-1H-pyrrolo[2,3-f]quinoline-2,7,9-tricarboxylic Acid], in series [1], the “50% cell mortality concentration” value came to 123 mg/L. In addition, the “concentration inducing autophagy equal to rapamycin reference” value (“concentration inducing autophagy equal” below) in series [2] amounted to 0.8 mg/L.

As for `O=C(O)c1cc(C(=O)O)c2c(n1)c(O)c(O)c1cc(C(=O)O)[nH]c12` [Example 3, 4,5-Dihydroxy-1H-pyrrolo[2,3-f]quinoline-2,7,9-tricarboxylic Acid], the “50% cell mortality concentration” value in series [1] is 48 mg/L. The “concentration inducing autophagy equal” value in series [2] is 12.5 mg/L.

With `C[S+](C)[O-]` [comparative example 1, dimethyl sulfoxide, reference compound], the “50% cell mortality concentration” value in series [1] was found to be 674 mg/L. Further, the “concentration inducing autophagy equal” value in series [2] is “at least 1000 mg/L”.

In the case of `COC(=O)c1cc(C(=O)OC)c2c(n1)C(=O)C(OC)(OC)c1cc(C(=O)OC)[nH]c1-2` [Example 5, Trimethyl 4,4-Dimethoxy-5-oxo-4,5-dihydro-1H-pyrrolo[2,3-f]quinoline-2,7,9-tricarboxylate], in series [1] (conclusion from Table 1), the “toxicity among the pyrroloquinoline quinone species (in words)” value is recorded as “lowest toxicity”. Also, the “50% cell mortality concentration” value in series [1] is recorded as “at least 1000 mg/L”. The “concentration inducing autophagy equal” value in series [2] is recorded as 0.8 mg/L.

Consider `COC(=O)c1cc(C(=O)OC)c2c(n1)C(=O)C(=O)c1cc(C(=O)OC)[nH]c1-2` [Example 2, Trimethyl 4,5-Dioxo-4,5-dihydro-1H-pyrrolo[2,3-f]quinoline-2,7,9-tricarboxylate], for which the “50% cell mortality concentration” value in series [1] came to 16 mg/L. Also, the “concentration inducing autophagy equal” value in series [2] is 0.8 mg/L.

Values taken from patent publication US10406151B2, “Method of inducing autophagy” (Mitsubishi Gas Chemical Company, Inc., priority 2016, dated 2019).
